# Assay results reported in US5834481A, “Heterotricyclically substituted phenyl-cyclohexane-carboxylic acid derivatives” (Bayer Aktiengesellschaft, priority 1993, dated 1998).
# Tested on: smooth muscle cells obtained from the aortas of rats
# Assay: Inhibition of the proliferation of smooth muscle cells (3H-thymidine incorporation)
# Type: cell-based
# Settings: semi-maximum inhibition of the thymidine incorporation produced by 10% FCS; rat aortic smooth muscle cells
# Description: Investigation of the inhibition of the proliferation of smooth muscle cells by the compounds according to the invention
# To determine the antiproliferative action of the compounds, smooth muscle cells are used which are obtained from the aortas of rats by the media explant technique [R. Ross, J. Cell, Biol. 50, 172, 1971]. The cells are inoculated into suitable culture dishes, as a rule 96-hole plates, and cultured at 37° C. in 5% CO2 for 2-3 days in medium 199 containing, 7.5% FCS and 7.5% NCS, 2mM L-glutamine and 15 mM HEPES, pH 7.4. The cells are then synchronized for 2-3 days by withdrawal of serum and then stimulated into growth using […] or other factors. Test compounds are simultaneously added. After 16-20 hours, 1 μCi ^3 H-thymidine is added and after a further 4 hours the incorporation of this substance into the TCA-precipitable DNA of the cells is determined. To determine the IC50 values, the active compound concentration is calculated which, on sequential dilution of the active compound, causes semi-maximum inhibition of the thymidine incorporation produced by 10% FCS.
row,Compound,IC50 [nM]
1,"O=C(N[C@H](CO)c1ccccc1)C1CCCCC1c1ccc(Cn2c3ccccc3c3ccncc32)cc1 (single isomer, unassigned) [Example 30]",0.1
2,"O=C(N[C@H](CO)c1ccccc1)C1CCCCC1c1ccc(Cn2c3ccccc3c3cccnc32)cc1 (single isomer, unassigned) [Example 32]",2
3,"Cc1cc(C)c2c3c(n(Cc4ccc(C5CCCCC5C(=O)N[C@H](CO)c5ccccc5)cc4)c2n1)CCCC3 (single isomer, unassigned) [Example 27]",580
4,"O=C(N[C@H](CO)c1ccccc1)C1CCCCC1c1ccc(Cn2c3c(c4cccnc42)CCCCC3)cc1 (single isomer, unassigned) [Example 50]",0.9
